Measured values as given in patent US11779555B2, “Combination of immunotherapy with local chemotherapy for the treatment of malignancies” (THE JOHNS HOPKINS UNIVERSITY, priority 2015, dated 2023).

What was measured:
bone marrow cells = test: Bone marrow cellularity and CD45+ leukocytes; format: in vivo, C57BL/6J mice
From the text: (§1) Appropriate isotype controls were used.

[1] = test system: GL-261 LUC cells in the contralateral hemisphere; test: Tumor re-challenge of long-term survivors; format: in vivo, mice
Method: Re-challenge experiments: Tumor burden was assessed weekly with IVIS imaging. Mice were considered “cured” of their brain tumors following initial treatment if no evidence of tumor was present at consecutive IVIS imaging sessions, and mice were further considered long-term survivors if no tumor was detected 90 days post implantation. […] Cells were prepared in 14 of PBS. Naïve mice were implanted in parallel as controls, and mice were followed with weekly IVIS imaging.

[2] = test system: intracranial GL-261 LUC gliomas; test: Survival of mice with intracranial GL-261 gliomas; format: in vivo, C57BL/6J mice; details: Example 3; chemotherapy at day 14, post anti-PD1
Method: Tumor model: Female C57BL/6J mice (The Jackson Laboratory, Bar Harbor, Me.), 6 to 8 weeks old, were implanted (Day 0) with GL-261 LUC cells to establish intracranial gliomas, as previously described (Zeng et al., 2013). Briefly, mice were anesthetized with ketamine/xylazine (100 mg/kg ketamine, 10 mg/kg xylazine) and a small midline incision was made to expose the skull. A burr hole was then drilled directly over the striatum and 130,000 GL-261 LUC cells were implanted at a depth of 3 mm from the cortical surface. The tumor take rate was 100%. Day 7 post implantation, mice were imaged to assess the progress of tumor growth using an IVIS platform (In Vivo Imaging System, Caliper Life Sciences, Hopkinton, Mass.). Mice were then stratified into experimental treatment groups based on luminescence. Each treatment group had 5 to 15 mice in the survival experiments. […]
Surgical procedure: polymer implantation: Mice in the LC or EP treatment groups were anesthetized with ketamine/xylazine (100 mg/kg ketamine, 10 mg/kg xylazine). […] Mice were monitored for a period of 30 min after recovery for signs of neurological deficits. […]
Statistics: Survival was plotted using Kaplan-Meier curves, and curves were analyzed with the log-rank Mantel-Cox test using GraphPad Prism software (GraphPad Software, La Jolla, Calif.). […]

CD3+ blood lymphocytes = test: Circulating CD3+ lymphocytes in peripheral blood (serial blood draws); format: in vivo, C57BL/6J mice; details: Day 30 post implantation, end of regimen, lasting at least 2 weeks
Method: Peripheral blood was collected by cardiac puncture before harvesting other tissues at day 21 and 30. A total of 600 μL was collected from each mouse in heparin-coated tubes (BD Biosciences, Franklin Lakes, N.J.). Blood was mixed with PBS in a 1:1 ratio and overlaid onto a Ficoll-Paque Plus (GE Healthcare) base in a 1:3 ratio. After centrifugation, peripheral lymphocytes were extracted from the resulting horizon and were washed twice with PBS. In addition to the blood draws performed on days 21 or 30 post implantation, blood draws were also performed on days 26 and 41 post implantation. On these days, blood was taken via tail vein sampling and 100 μL of blood was collected for every mouse. Red blood cells were lysed using RBC Lysis Buffer (eBioscience) and subsequently stained with CD3 FITC Clone: 17A2 (eBioscience). All flow cytometry experiments were performed on a LSRII (BD Biosciences) and analysis was performed using FlowJo software (TreeStar, Ashland, Oreg.).

OT-I T cells = test: In vivo proliferation of adoptively transferred OT-I T cells in the spleen; parameters: species or system mice; details: three days after the transfer
Method: For in vivo cell proliferation tracing, OT-I RAG−/− splenocytes were labeled with cell proliferation dye eFluor450 (eBioscience, San Diego, Calif.) in the following way: Lymphocytes were isolated from spleen cells, their viability was checked post-isolation, and viable lymphocytes were washed with HBSS without Ca^2+ or Mg^2+ once in preparation for the staining. A 10 μM solution of the cell proliferation dye was made in HBSS without Ca^2+ and Mg^2+. After washing the isolated cells, the cells were reconstituted by adding the 10 μM dye solution to a concentration of 5×10^6 cells/mL. While the solution was added to the cells, the tube was gently vortexed to ensure homogeneous uptake of the dye by all cells.
The cells were incubated for 8 min in the dark at room temperature. Cells were quenched with 20 mls of HBSS with 20% FBS and were then spun at 1400 rpm for 5 min at 4° C. Cells were washed with HBSS without FBS an additional two times and cells were checked for viability. Cells were resuspended with HBSS (w/o FBS) to a concentration of 10×10^6 cells/mL. The cells were passed through a […] cell strainer to ensure they were in a single cell suspension and 100 μL of the cell suspension was injected retro-orbitally in the recipient mice immediately.

[3] = test system: lymphocytes of draining lymph nodes, spleen and blood; test: Flow cytometric analysis of draining lymph nodes and peripheral lymphoid organs
From the text: […] The spleen, brain, cervical lymph nodes (LN), and bone marrow were harvested and passed through a 40-μm strainer. A 30%-37%-60% Percoll gradient (GE Healthcare, Buckinghamshire, UK) was used to isolate immune cell populations from brain tumors and the draining LNs. After centrifugation, the 37%-60% interface contained lymphocytes, monocytes, and microglia in the case of brain tumors, and lymphocytes and monocytes in the case of draining LNs.
(§2) Lymphocytes from all tissues were stimulated with PMA-Ionomycin and Golgi stop (eBioscience) for 4-6 hours in a 37° C. humidified incubator maintained at 5% CO2. […] For the memory T cells, lymphocytes were stained with CD62L PE (BD Biosciences) and CD44 BV421 (BD Biosciences). […] Appropriate isotype controls were used. For the adoptive transfer experiment, CD45.2 PE Clone: 104 (eBioscience) was used to stain the isolated lymphocytes.

effector memory T cells = test: IFNγ production of memory T cells after re-challenge; format: in vivo, mice; details: twenty days after re-challenge, PMA/Ionomycin stimulation
Method: as §1
Re-challenge experiments: Tumor burden was assessed weekly with IVIS imaging. Mice were considered “cured” of their brain tumors following initial treatment if no evidence of tumor was present at consecutive IVIS imaging sessions, and mice were further considered long-term survivors if no tumor was detected 90 days post implantation. Long-term survivors from each experimental group were re-challenged 90 days post implantation with 300,000 GL-261 LUC cells injected intracranially in the contralateral hemisphere. Cells were prepared in […]. Naïve mice were implanted in parallel as controls, and mice were followed with weekly IVIS imaging.

[4] = test system: adoptively transferred ova specific (CD45.2) T cells; test: Adoptive transfer of OT-I lymphocytes in GL-261 ova tumor bearing mice; format: in vivo; details: four days after adoptive transfer, three days after initiation of chemotherapy
From the text: Adoptive transfer experiments: For the adoptive transfer experiments, 5 week old female B6.SJL-Ptprca Pepcb/BoyJ mice expressing the congenic marker CD45.1 were used as the recipient mice. Inbred C57BL6/J (B6), B6.129S7-Rag1tm1Mom/J (RAG^−/−), B6.SJL-Ptprcb Pepcb/BoyJ (CD45.2) and C57BL/6-Tg(TcraTcrb)1100Mjb/J (OT-I) mice were purchased from The Jackson Laboratory. 6-8 weeks old female RAG−/− OT-I CD45.2 transgenic mice were used as the donor mice.
RAG−/− OT-I CD45.2 mice were lethally anesthetized and their spleens were harvested and passed through a 40-μM nylon mesh. Red blood cell lysis buffer was consecutively applied to remove red blood cells. Cells were counted, checked for their viability, and washed twice with PBS. Two million cells were transferred in 100 uL of PBS for every recipient mouse via retro-orbital injection.
Mice were implanted with 300,000 Gl-261-ova-luc cells at day 0 and RAG−/− OT-I CD45.2 lymphocytes were transferred at day 13: 1 day before starting treatment with chemotherapy. The experimental schedule of the GL-261-ova tumor experiments is explained in detail in FIG. 1.
as §1

[5] = test system: tumor infiltrating lymphocytes; test: Flow cytometric analysis of tumor infiltrating lymphocytes (TILs)
From the text: Flow cytometric analysis of tumor infiltrating immune cells and peripheral lymphoid cell populations: At day 21 or day 30 post tumor implantation, mice were sacrificed using a lethal dose of ketamine/xylazine cocktail. The spleen, brain, cervical lymph nodes (LN), and bone marrow were harvested and passed through a 40-μm strainer. A 30%-37%-60% Percoll gradient (GE Healthcare, Buckinghamshire, UK) was used to isolate immune cell populations from brain tumors and the draining LNs. After centrifugation, the 37%-60% interface contained lymphocytes, monocytes, and microglia in the case of brain tumors, and lymphocytes and monocytes in the case of draining LNs.
as §2

## O=NN(CCCl)C(=O)NCCCl [i.p. BCNU, BCNU]
Bone marrow cells; Example 2
  myelotoxicity (BM cellularity and CD45 leukocytes vs control): late myelotoxicity
Bone marrow cells; Example 3
  CD45+ bone marrow cells (leukocytes) vs control, LC or LC+anti-PD1: decreased cell numbers
  bone marrow cellularity (live-dead staining): significant decrease in cellularity
[1]; experimental day 104
  size of the spleen at necropsy vs LC and anti-PD1 treated mice: significantly decreased
[1]; long term survivors
  tumor growth after re-challenge in the contralateral hemisphere: not able to inhibit tumor growth
[2]
  median survival: 45 days
CD3+ blood lymphocytes
  CD3+ lymphocytes in peripheral blood: severely lymphodepleted
OT-I T cells
  OT-I cells divided (dilution of cell proliferation dye): 29.9%
[3]; Example 3
  CD3+ cells and CD8+ IFN-γ+ cells in draining lymph nodes: lymphodepletion of both CD3+ cells and CD8+ IFN-γ+ cells
[3]; cured mice, 4 months from tumor implantation
  lymphocytes recovered from spleen, LN and blood vs untreated or LC treated mice: decreased number of recovered lymphocytes
Effector memory T cells
  IFNγ production of CD8+CD44[high]CD62L[low] cells from DLNs, spleen or peripheral blood: dysfunctional IFNγ production
[4]
  CD3+CD45.2+ cells within the tumor microenvironment: 4%
  CD3+CD45.2+ transferred cells in the DLNs: 3%
[5]; day 21
  percent of CD4+FoxP3+ regulatory cells (Tregs) in TILs: 55%
  percentage of recovered CD8+ TILs producing IFNγ: 35%
[5]; day 30 post implantation
  density of CD3+ TILs (number of cells normalized by tumor volume): 40 cells
